Measurements published in EP2067861A1, “Animals of the rattus genus wherein msh6 expression is functionally decreased and methods for the generation of specific mutants therefrom” (Koninklijke Nederlandse Akademie van Wetenschappen, priority 2007, dated 2009).

Tested on: wild-type males
Test: Survival of ENU treated wild-type males (previous studies)
Assay type: in vivo, rat
Settings: unpublished data
From the text: The efficiency of ENU is dependent of the dose, reflected by a higher mutagenicity after three weekly administrations of low doses of the mutagen compared to a single high-dose injection (Justice et al. (2000) Mamm Genome 11, 484-8). Furthermore it has been shown that higher ENU concentrations increase the mutation frequency (Smits et al. (2004) Pharmacogenet Genomics 16, 159-69; Smits and Cuppen (2006) Trends Genet. 22, 232-40). To determine the optimal ENU concentration we performed an ENU dose-response experiment and determined the fertility of the founders. At 12 weeks of age msh6^-/- males were treated with 3 weekly doses of different concentrations of the mutagen. Fertility was determined after a full cycle of spermatogenesis (± 10 weeks) by breeding and/or histological analysis of the testes. At concentrations of 35, 30 and 25 mg/kg, respectively 1/8, 5/8 and 4/6 males were fertile (Table 5). Compared to earlier studies, where at 40 and 35 mg/kg ENU respectively 6/10 and 10/10 rats are fertile (Smits and Cuppen (2006) Trends Genet. 22, 232-40), this is a considerable decrease. It is known that MSH6 deficiency reduces lifespan in both rats (van Boxtel et al. (2007) submitted) and mice (Edelmann (1997) Cell 91, 467-77) as a result of tumor development. MSH6 deficiency increased ENU sensitivity not only in fertility, but also in survival. […]

CCN(N=O)C(N)=O [ENU, N-ethyl-N-nitrosourea]
survived till 1,5 years of age (35 mg/kg bodyweight ENU): 9 out of 10 | survived till 1,5 years of age (40 mg/kg bodyweight ENU): 10 out of 10
